Reference: patent US6441205B1, “Synthetic precursors to 4-(P-methoxyphenyl)-2-amino-butane” (Council of Scientific and Industrial Research, priority 2000, dated 2002)
Like-named read-outs stand apart in the source and are kept apart here.

What was measured:
[1] = tested on: 4th instar larvae of Spilarctia obliqua; test: feeding deterrency (antifeedant) bioassay, diet-mix method; format: in vivo, Spilarctia obliqua (Bihar hairy caterpillar); details: for % feeding deterrency: diet-mix, fecal pellets after 24 hours; for antifeedant activity (in words): bioassay studies
Protocol: (§1) The compound having formula (1) was evaluated as feeding deterrent and growth inhibitor against 4th in star larvae of spilarctia obliqua (Bihar hairy caterpillar). This insect attacks more than twenty cash crops like urd, moong, arhar, mint and coleus etc. Several synthetic insecticides like quinalphos, Phosphamidon and synthetic pyrethroids are commercially used to manage this insect pest. But, the insect is developing resistance towards some of these insecticides. Therefore, it has now become imperative to search for new ecologically safe, environmentally sound and non-toxic chemicals to manage this pest.
(§2) With compound having formula (1) insect feeding deterrency and growth inhibition was tested by diet-mix method. In this method, 4-(p-methoxyphenyl)-2-aminobutane the compound having formula (1) was dissolved in acetone to make various concentrations ranging from 1000 to 5000 ppm. Test solution was mixed in the artificial diet of the insect so that each gram of diet contained 60-300 μg of the compound (1). 4th in star larva (newly molted) starved four hours, was weighed and released on treated artificial diet in thirty replications. In control, only solvent acetone was mixed and azadirachtin at 1000 ppm concentration was taken as standard for feeding bioassay. After 24 hours, number of fecal pellets produced were counted, and the data were analyzed for % feeding deterrency. Some experiments were continued for next 24 hours and weights of the larva were taken daily. After 3 days, experiment was discontinued and weight gain or loss was analyzed for % growth inhibition.
Diflubenzuron at 5 ppm was taken as a standard in case of growth inhibitory assay. The test result of compound having formula (1) in terms of its feeding deterrency and growth inhibition as compared to standards azadirachtin and diflubenzuron are given in table 1.

[2] = exposure to sun light; cited from earlier work
[3] = tested on: 4th instar larvae of Spilarctia obliqua; test: growth inhibition bioassay, diet-mix method; format: in vivo, Spilarctia obliqua (Bihar hairy caterpillar); details: bioassay studies
Protocol: as §1
as §2, with “In control, only solvent acetone was mixed and azadirachtin at 1000 ppm concentration was taken as standard for feeding bioassay.” left out, “Some experiments were continued for next 24 hours and weights of the larva were taken daily.” left out, “inhibition. […]” for “inhibition.”

[4] = sensitivity to light (UV and sunlight); format: physicochemical; details: both UV and sunlight

| SMILES | % feeding deterrency ([1]; 1000 ppm) [%] | sensitivity to light [2] | % feeding deterrency ([1]; 2000 ppm) [%] | % feeding deterrency ([1]; 3000 ppm) [%] | % feeding deterrency ([1]; 4000 ppm) [%] | % feeding deterrency ([1]; 5000 ppm) [%] | antifeedant activity (in words) [1] | growth inhibition activity (in words) [3] | sensitivity to light [4] |
| --- | --- | --- | --- | --- | --- | --- | --- | --- | --- |
| C/C=C(\C)C(=O)O[C@H]1C[C@@H](OC(C)=O)[C@@]2(C(=O)OC)CO[C@H]3[C@@H](O)[C@@](C)([C@]45O[C@@]4(C)[C@H]4C[C@@H]5O[C@@H]5OC=C[C@@]54O)[C@H]4[C@]1(CO[C@]4(O)C(=O)OC)[C@@H]32 [Azadirachtin, reference compound] | 100.0 | photosensitive |  |  |  |  |  |  |  |
| COc1ccc(CCC(C)N)cc1 (stereo not drawn) [Compound 1, 4-(p-methoxyphenyl)-2-amino butane] | 32.0 |  | 40.0 | 64.0 | 82.0 | 100.0 | significant activity | significant activity | not sensitive to light |
| CC(O)CCc1ccc(O)cc1 (stereo not drawn) [compound (2), 4-(p-hydroxyphenyl)-butan-2-ol] |  |  |  |  |  |  | not found to be active | not found to be active |  |
